Our source for the MIC values is US9487516B2, “Antibacterial oxadiazolone derivatives” (priority 2013, dated 2016).

The structures appear in SMILES notation. Converted amounts (≈) assume the structure as drawn.

Assay in all cases: Bacterial growth minimal inhibitory concentration (microdilution, cation-adjusted Mueller-Hinton Broth)
Common to all, as to assay type: cell-based
In general terms: Broth dilution looks for growth in wells or tubes with falling amounts of substance.

Assay [1] relates to Staphylococcus aureus A798. Conditions: multiply-resistant strain (in particular quinolone-resistant), read-out: MIC for S. aureus A798. On the procedure:
(§1) Minimal Inhibitory Concentrations (MICs; mg/L) were determined in cation-adjusted MuellerHinton Broth by a microdilution method following the description given in “Methods for Dilution Antimicrobial Susceptibility Tests for Bacteria that Grow Aerobically”, Approved standard, 7th ed., Clinical and Laboratory Standards Institute (CLSI) Document M7-A7, Wayne, Pa., USA, 2006.
(§2) All Example compounds were tested against several Gram positive and Gram negative bacteria. […] Staphylococcus aureus A798, Enterococcus faecium A949 and Acinetobacter baumanii T6474 are multiply-resistant strains (in particular quinolone-resistant), while Moraxella catarrhalis A894 is a quinolone-sensitive strain and Staphylococcus aureus ATCC29213 is a methicillin-sensitive and quinolone-sensitive strain.

The test system of assay [2] is Moraxella catarrhalis A894. Conditions: quinolone-sensitive strain. As to the method:
as §1, §2

Assay [3] relates to Acinetobacter baumanii T6474. Conditions: Acinetobacter baumannii, multiply-resistant strain (in particular quinolone-resistant). As to the method:
as §1, §2

Assay [4] has as its system Enterococcus faecium A949. Particulars: multiply-resistant strain (in particular quinolone-resistant), read-out: MIC for E. faecium A949. On the procedure: as §1, §2
For assay [5], the system named is Staphylococcus aureus ATCC29213. Particulars: methicillin-sensitive and quinolone-sensitive strain, read-out: MIC for S. aureus ATCC29213. On the procedure:
as §1, §2

For the compound `CCSc1ccc(-n2nc(CCCN[C@@H]3Cn4c(=O)ccc5ccc(F)c3c54)oc2=O)cc1` [Example 4, (S)-1-{3-[4-(4-ethylsulfanyl-phenyl)-5-oxo-4,5-dihydro-[1,3,4]oxadiazol-2-yl]-propylamino}-9-fluoro-1,2-dihydro-pyrrolo[3,2,1-ij]quinolin-4-one], the minimum inhibitory concentration (MIC) in assay [1] was determined as 0.5 µg/mL (≈ 1.07 µM); in assay [2] it was 0.5 µg/mL (≈ 1.07 µM); in assay [3] it was 8 µg/mL (≈ 17.1 µM); in assay [4] it was 0.5 µg/mL (≈ 1.07 µM); in assay [5], 0.063 µg/mL (≈ 0.135 µM).
As for `O=C1COc2ccc(-n3nc(CCCN[C@@H]4Cn5c(=O)ccc6ccc(F)c4c65)oc3=O)nc2N1` [Example 8, (S)-9-fluoro-1-{3-[5-oxo-4-(3-oxo-3,4-dihydro-2H-pyrido[3,2-b][1,4]oxazin-6-yl)-4,5-dihydro-[1,3,4]oxadiazol-2-yl]-propylamino}-1,2-dihydro-pyrrolo[3,2,1-ij]quinolin-4-one], the MIC in assay [1] worked out at 0.25 µg/mL (≈ 0.523 µM); in assay [2], 0.125 µg/mL (≈ 0.261 µM); in assay [3], 0.5 µg/mL (≈ 1.05 µM); in assay [4] it was 0.5 µg/mL (≈ 1.05 µM); in assay [5], 0.125 µg/mL (≈ 0.261 µM).
For the compound `O=C1CSc2ccc(-n3nc(CCCN[C@H]4Cn5c(=O)cnc6ccc(F)c4c65)oc3=O)nc2N1` [Example 16, (R)-7-fluoro-6-{3-[5-oxo-4-(3-oxo-3,4-dihydro-2H-pyrido[3,2-b][1,4]-thiazin-6-yl)-4,5-dihydro-[1,3,4]oxadiazol-2-yl]-propylamino}-5,6-dihydro-pyrrolo[1,2,3-de]quinoxalin-3-one], the MIC was 0.063 µg/mL (≈ 0.127 µM) in assay [1]; 0.063 µg/mL (≈ 0.127 µM) in assay [2]; 0.25 µg/mL (≈ 0.505 µM) in assay [3]; 0.25 µg/mL (≈ 0.505 µM) in assay [4]; 0.063 µg/mL (≈ 0.127 µM) in assay [5].
Turning to `CCCc1ccc(-n2nc(CCCN[C@H]3Cn4c(=O)cnc5ccc(F)c3c54)oc2=O)cc1` [Example 2, (R)-7-fluoro-6-{3-[5-oxo-4-(4-propyl-phenyl)-4,5-dihydro-[1,3,4]oxadiazol-2-yl]-propylamino}-5,6-dihydro-pyrrolo[1,2,3-de]quinoxalin-3-one], the MIC is 0.5 µg/mL (≈ 1.11 µM) in assay [1]; 2 µg/mL (≈ 4.45 µM) in assay [2]; greater than 8 µg/mL in assay [3]; 1 µg/mL (≈ 2.22 µM) in assay [4]; 0.125 µg/mL (≈ 0.278 µM) in assay [5].
As to `O=c1oc(CCCN[C@H]2Cn3c(=O)ccc4ccc(F)c2c43)nn1-c1ccc2c(c1)OCCO2` [Example 23, (R)-1-{3-[4-(2,3-dihydro-benzo[1,4]dioxin-6-yl)-5-oxo-4,5-dihydro-[1,3,4]oxadiazol-2-yl]-propylamino}-9-fluoro-1,2-dihydro-pyrrolo[3,2,1-ij]quinolin-4-one], the MIC in assay [1] was 8 µg/mL (≈ 17.2 µM); in assay [2], 4 µg/mL (≈ 8.61 µM); in assay [3], greater than 8 µg/mL; in assay [4], greater than 8 µg/mL; in assay [5] it was 4 µg/mL (≈ 8.61 µM).
As to `O=C1CSc2ccc(-n3nc(CCCN[C@H]4Cn5c(=O)ccc6ccc(F)c4c65)oc3=O)cc2N1` [Example 19, (R)-9-fluoro-1-{3-[5-oxo-4-(3-oxo-3,4-dihydro-2H-benzo[1,4]-thiazin-6-yl)-4,5-dihydro-[1,3,4]oxadiazol-2-yl]-propylamino}-1,2-dihydro-pyrrolo[3,2,1-ij]quinolin-4-one], the MIC in assay [1] is no more than 0.016 µg/mL; in assay [2], 0.031 µg/mL (≈ 0.0628 µM); in assay [3] it was no more than 0.016 µg/mL; in assay [4] it was 0.25 µg/mL (≈ 0.507 µM); in assay [5] it was no more than 0.016 µg/mL.
For the compound `O=C1CSc2ccc(-n3nc(CCCN[C@@H]4Cn5c(=O)cnc6ccc(F)c4c65)oc3=O)nc2N1` [Example 18, (S)-7-fluoro-6-{3-[5-oxo-4-(3-oxo-3,4-dihydro-2H-pyrido[3,2-b][1,4]-thiazin-6-yl)-4,5-dihydro-[1,3,4]oxadiazol-2-yl]-propylamino}-5,6-dihydro-pyrrolo[1,2,3-de]quinoxalin-3-one], the MIC in assay [1] is 0.063 µg/mL (≈ 0.127 µM); in assay [2], no more than 0.016 µg/mL; in assay [3], 0.25 µg/mL (≈ 0.505 µM); in assay [4] it was 0.25 µg/mL (≈ 0.505 µM); in assay [5], 0.031 µg/mL (≈ 0.0626 µM).
Take `CCOc1ccc(-n2nc(CCCN[C@H]3Cn4c(=O)cnc5ccc(F)c3c54)oc2=O)cc1` [Example 31, (R)-6-{3-[4-(4-ethoxy-phenyl)-5-oxo-4,5-dihydro-[1,3,4]oxadiazol-2-yl]-propylamino}-7-fluoro-5,6-dihydro-pyrrolo[1,2,3-de]quinoxalin-3-one]: the MIC in assay [1] was 4 µg/mL (≈ 8.86 µM); in assay [2], 8 µg/mL (≈ 17.7 µM); in assay [3] it was 8 µg/mL (≈ 17.7 µM); in assay [4], greater than 8 µg/mL; in assay [5], 1 µg/mL (≈ 2.22 µM).
For `CCCc1ccc(-n2nc(CCCN[C@@H]3Cn4c(=O)ccc5ccc(F)c3c54)oc2=O)cc1` [Example 1, (S)-9-fluoro-1-{3-[5-oxo-4-(4-propyl-phenyl)-4,5-dihydro-[1,3,4]oxadiazol-2-yl]-propylamino}-1,2-dihydro-pyrrolo[3,2,1-ij]quinolin-4-one], the MIC in assay [1] was 2 µg/mL (≈ 4.46 µM); in assay [2], 2 µg/mL (≈ 4.46 µM); in assay [3], greater than 8 µg/mL; in assay [4], 1 µg/mL (≈ 2.23 µM); in assay [5], 0.25 µg/mL (≈ 0.557 µM).
For the compound `CCSc1ccc(-n2nc(CCCN[C@@H]3Cn4c(=O)cnc5ccc(F)c3c54)oc2=O)cc1` [Example 33, (S)-6-{3-[4-(4-ethylsulfanyl-phenyl)-5-oxo-4,5-dihydro-[1,3,4]oxadiazol-2-yl]-propylamino}-7-fluoro-5,6-dihydro-pyrrolo[1,2,3-de]quinoxalin-3-one], the MIC in assay [1] is 0.25 µg/mL (≈ 0.535 µM); in assay [2], 0.5 µg/mL (≈ 1.07 µM); in assay [3], 0.25 µg/mL (≈ 0.535 µM); in assay [4], 0.5 µg/mL (≈ 1.07 µM); in assay [5] it was 0.031 µg/mL (≈ 0.0663 µM).
`O=C1COc2ccc(-n3nc(CCCN[C@@H]4Cn5c(=O)cnc6cccc4c65)oc3=O)nc2N1` [Example 35, (S)-6-{3-[5-oxo-4-(3-oxo-3,4-dihydro-2H-pyrido[3,2-b][1,4]oxazin-6-yl)-4,5-dihydro-[1,3,4]oxadiazol-2-yl]-propylamino}-5,6-dihydro-pyrrolo[1,2,3-de]quinoxalin-3-one]: the MIC in assay [1] came out at 1 µg/mL (≈ 2.17 µM); in assay [2] it was 0.5 µg/mL (≈ 1.08 µM); in assay [3], 2 µg/mL (≈ 4.33 µM); in assay [4] it was 4 µg/mL (≈ 8.67 µM); in assay [5] it was 0.5 µg/mL (≈ 1.08 µM).
As to `O=c1oc(CCCN[C@@H]2Cn3c(=O)cnc4ccc(F)c2c43)nn1-c1ccc2c(c1)OCCO2` [Example 24, (S)-6-{3-[4-(2,3-dihydro-benzo[1,4]dioxin-6-yl)-5-oxo-4,5-dihydro-[1,3,4]oxadiazol-2-yl]-propylamino}-7-fluoro-5,6-dihydro-pyrrolo[1,2,3-de]quinoxalin-3-one], the MIC in assay [1] was 8 µg/mL (≈ 17.2 µM); in assay [2] it was 4 µg/mL (≈ 8.59 µM); in assay [3], 4 µg/mL (≈ 8.59 µM); in assay [4], greater than 8 µg/mL; in assay [5] it was 2 µg/mL (≈ 4.3 µM).
For `O=C1CSc2ccc(-n3nc(CCCN[C@H]4Cn5c(=O)ccc6ccc(F)c4c65)oc3=O)nc2N1` [Example 14, (R)-9-fluoro-1-{3-[5-oxo-4-(3-oxo-3,4-dihydro-2H-pyrido[3,2-b][1,4]-thiazin-6-yl)-4,5-dihydro-[1,3,4]oxadiazol-2-yl]-propylamino}-1,2-dihydro-pyrrolo[3,2,1-ij]quinolin-4-one], the MIC in assay [1] is 0.031 µg/mL (≈ 0.0627 µM); in assay [2] it was 0.031 µg/mL (≈ 0.0627 µM); in assay [3] it was 0.25 µg/mL (≈ 0.506 µM); in assay [4] it was 0.25 µg/mL (≈ 0.506 µM); in assay [5], no more than 0.016 µg/mL.
In the case of `O=C1COc2ccc(-n3nc(CCCN[C@H]4Cn5c(=O)ccc6ccc(F)c4c65)oc3=O)cc2N1` [Example 12, (R)-9-fluoro-1-{3-[5-oxo-4-(3-oxo-3,4-dihydro-2H-benzo[1,4]oxazin-6-yl)-4,5-dihydro-[1,3,4]oxadiazol-2-yl]-propylamino}-1,2-dihydro-pyrrolo[3,2,1-ij]quinolin-4-one], the MIC is 0.031 µg/mL (≈ 0.0649 µM) in assay [1]; no more than 0.016 µg/mL in assay [2]; 0.25 µg/mL (≈ 0.524 µM) in assay [3]; 0.25 µg/mL (≈ 0.524 µM) in assay [4]; 0.031 µg/mL (≈ 0.0649 µM) in assay [5].
Take `CCOc1ccc(-n2nc(CCCN[C@@H]3Cn4c(=O)ccc5ccc(F)c3c54)oc2=O)cc1` [Example 28, (S)-1-{3-[4-(4-ethoxy-phenyl)-5-oxo-4,5-dihydro-[1,3,4]oxadiazol-2-yl]-propylamino}-9-fluoro-1,2-dihydro-pyrrolo[3,2,1-ij]quinolin-4-one]: the MIC in assay [1] is 4 µg/mL (≈ 8.88 µM); in assay [2], 8 µg/mL (≈ 17.8 µM); in assay [3] it was 4 µg/mL (≈ 8.88 µM); in assay [4], greater than 8 µg/mL; in assay [5], 2 µg/mL (≈ 4.44 µM).
Consider `CC(C)c1ccc(-n2nc(CCCN[C@@H]3Cn4c(=O)ccc5ccc(F)c3c54)oc2=O)cc1` [Example 3, (S)-9-fluoro-1-{3-[4-(4-isopropyl-phenyl)-5-oxo-4,5-dihydro-[1,3,4]oxadiazol-2-yl]-propylamino}-1,2-dihydro-pyrrolo[3,2,1-ij]quinolin-4-one], for which the MIC in assay [1] is 0.25 µg/mL (≈ 0.557 µM); in assay [2], 2 µg/mL (≈ 4.46 µM); in assay [3], greater than 8 µg/mL; in assay [4], 0.25 µg/mL (≈ 0.557 µM); in assay [5] it was 0.063 µg/mL (≈ 0.14 µM).
`CCOc1ccc(-n2nc(CCCN[C@@H]3Cn4c(=O)cnc5ccc(F)c3c54)oc2=O)cc1` [Example 30, (S)-6-{3-[4-(4-ethoxy-phenyl)-5-oxo-4,5-dihydro-[1,3,4]oxadiazol-2-yl]-propylamino}-7-fluoro-5,6-dihydro-pyrrolo[1,2,3-de]quinoxalin-3-one]: the minimum inhibitory concentration (MIC) is 4 µg/mL (≈ 8.86 µM) in assay [1]; 8 µg/mL (≈ 17.7 µM) in assay [2]; 4 µg/mL (≈ 8.86 µM) in assay [3]; 8 µg/mL (≈ 17.7 µM) in assay [4]; 1 µg/mL (≈ 2.22 µM) in assay [5].

As usually defined, the MIC is the smallest concentration in the dilution series that meets the test's criterion for growth inhibition.
